Measurements from patent publication US6489307B1, “Antisense compositions targeted to β1-adrenoceptor-specific mRNA and methods of use” (University of Florida, priority 1998, dated 2002).
“Also recorded” adds a separate entry of the source.

Columns and labels:
[1] = test system: isolated rat heart; test: Isolated perfused heart model, myocardial ischemia-reperfusion; format: in vivo, Sprague-Dawley rats; conditions: for ischemia-reperfusion-induced myocardial dysfunction (LVSP, dLVP, LVEDP, CPP): ODN 200 μg/rat i.v. with liposomes 4 days before, 30 min ischemia, 30 min reperfusion; for ischemia-reperfusion induced ventricular abnormality (dLVP, CPP, LVEDP): ODN 1 mg/kg i.v. 4 days before, atenolol 2 mg/kg 6 hr before
Description: Male Sprague-Dawley rats weighing 200-250 g were injected intravenously with either AS-ODNs (n=7) or IN-ODNs (n=7) at a dose of 200 μg/rat 4 days before excising the hearts. DOTAP/DOPE liposomes (700 μg/rat) were given along with ODNs.
The hearts were excised rapidly and placed in ice-cold Kreb-Henseleit buffer (mmol/L: NaCl 118, KCl 4.7, KH2PO4 1.2, MgSO4 1.2, CaCl2 1.25, NaHCO3 25, and glucose 11, pH 7.4). Within one min, the hearts were transferred to an isolated perfusion apparatus and perfused via the aorta with oxygen-saturated (95% O2+5% CO2) Kreb-Henseleit buffer kept at 37° C. with the use of a MasterFlex pump (model 7015-21, Cole-Palmer Instrument Co.) according to the modified Langendroff procedure (Yang et al., 1998; Neely and Rovetto, 1975). The heart was placed in a semi-closed circulating water-warmed (37° C.) air chamber, paced atrially with a Medtronic 5320 pacemaker at a rate of 300 bpm, and perfused at a constant flow (5.5-6.0 ml/per min). Coronary perfusion pressure (CPP) was measured via a catheter placed just proximal to the aorta and connected to a Gould Statham P23ID pressure transducer. A latex balloon filled with water and connected to a Gould Statham P23ID pressure transducer was inserted in the left ventricle through the left atrium to measure left ventricular end-diastolic pressure (LVEDP), left ventricular systolic pressure (LVSP), and developed left ventricular pressure (dLVP) (dLVP=LVSP−LVEDP). LVEDP during equilibration was set at 5 to 7 mmHg. All measurements were continuously recorded on a 4-channel record (Astro-Med).
Six hearts from saline-treated rats were continuously perfused with Kreb-Henseleit buffer for 80 min and served as sham control. Hearts from other rats, after 20 min of equilibration, were subjected to 30 min of ischemia followed by 30 min of reperfusion. After completion of the study, hearts were frozen in liquid-nitrogen for β1-AR analysis by binding assay, β1-AR protein analyses by Western blot, β1-AR mRNA analysis by reverse transcription-polymerase chain reaction (RT-PCR™), and measurement of MDA.
The protective effects of β1-AS-ODNs were tested in a rat model of myocardial ischemia-reperfusion. Five groups of SD rats were studied. Sham controls (n=6) were injected with saline and perfused continuously for 80 min without ischemia/reperfusion (I/R). In other groups, hearts were perfused for 20 min and subjected to global ischemia (30 min) followed by reperfusion (30 min). […] AS-ODN+I/R (n=7) or INV-ODN+I/R (n=7) were injected iv. with 1 mg/kg β1-AS-ODN or INV-ODN 4 days before the I/R study was performed.

[2] = test system: spontaneously hypertensive rats; test: Left ventricular hypertrophy after 2-month treatment; format: in vivo, rat (SHR); conditions: end of 2-month treatment; vs controls
Description: Adult spontaneously hypertensive rats (300-350 g) were treated with β1-AS-ODNs for more than 2 months. The blood pressure was reduced by 20-30 mmHg persistently throughout the treatment period (FIG. 11). Control animals receiving saline or INV-ODNs had no change in blood pressure. At the end of a 2-month treatment, the hearts were dissected and weighed.

[3] = test system: β1-AR mRNA; test: RT-PCR and Southern blotting, renal cortex; format: in vivo, rat (SHR); conditions: 0.5 mg/kg i.v., semiquantitative RT-PCR
Description: (§1) At different time points after the single injection of β1-AS-ODN or inverted ODN, rats were euthanized, and the renal cortex was dissected from the left kidneys, immediately dipped into RNA later tissue storage buffer (Ambion), and stored at −20° C. Total RNA was extracted with RNAwiz reagent (Ambion) and quantified by spectrophotometer. RNA samples from 4 to 5 rats from each time point were pooled. RNA (5 μg) was digested by DNase I and reverse-transcribed by Superscript reverse transcriptase (GIBCO BRL) at 42° C. for 50 min. and 1/20 of the reverse transcription (RT) product was used to run a polymerase chain reaction (PCR) for 20 cycles. PCR primers for β1-AR were 5′-[…]-3′ (SEQ ID NO:199) (forward) and 5′-[…]-3′ (SEQ ID NO:200) (reverse) and yielded products of 432 bp, which spanned the AUG start codon. Primers for preprorenin were 5′-[…]-3′ (SEQ ID NO:201) (forward) and 5′-[…]-3′ (SEQ ID NO:202) (reverse) and yielded products of 362 bp.
(§2) Primers for GAPDH were 5′-[…]-3′ (SEQ ID NO:203) (forward) and 5′-[…]-3′ (SEQ ID NO:204) (reverse) and yielded products of 505 bp (Jo et al., 1996). RT-PCR products were subjected to Southern blotting, hybridized with psoralen-biotin-labeled cDNA probes, and detected with nonisotopic kits (Ambion). After the membranes had been exposed to x-ray films, the intensity of β1-AR and preprorenin mRNAs was quantified by densitometry and normalized with GAPDH mRNA levels. The studies were repeated at least twice.

[4] = test system: preprorenin mRNA; test: RT-PCR and Southern blotting, renal cortex; format: in vivo, rat (SHR)
Description: as §1, §2

| Substance | ischemia-reperfusion-induced myocardial dysfunction (LVSP, dLVP, LVEDP, CPP) [1] | ischemia-reperfusion induced ventricular abnormality (dLVP, CPP, LVEDP) [1] | left ventricular hypertrophy (LV/BW) [2] | preserving dLVP after ischemia-reperfusion, comparison with atenolol ([1]; 200 μg/rat 4 days before) | overall protective effects, comparison with atenolol ([1]; 1 mg/kg i.v. 4 days before) | restoration of dLVP, comparison with atenolol ([1]; 1 mg/kg i.v. 4 days before) | level of steady-state β1-AR mRNA in renal cortex [3] | level of steady-state β1-AR mRNA in renal cortex ([3]; listed as AS-ODN) | preprorenin mRNA level in renal cortex ([4]; 4 days after injection) | preprorenin mRNA decrease ([4]; by day 18) |
| --- | --- | --- | --- | --- | --- | --- | --- | --- | --- | --- |
| 5′-AGCCGTACCCGCGCC-3′ (phosphorothioate backbone, further chemistry not given here) [Inverted ODN, 15-mer inverted ODN control, reference compound] | no effect | no effect |  |  |  |  |  |  |  |  |
| 5′-CCGCGCCCATGCCGA-3′ (phosphorothioate backbone, further chemistry not given here) [β1-AS-ODN, 15-mer antisense ODN targeted to the AUG start codon of rat β1-AR mRNA] | markedly attenuated | beneficial effects; also recorded: markedly attenuated | significantly reduced | more effective than atenolol | equivalent to or even better than atenolol | to a greater extent than atenolol | did not reduce | no reduction | 62 % of control | completely reversed |
